Calls of active or inactive are those of the source. Where only a bound is given, the exact number is not on record here.

A word on the IC50: it is the concentration needed to halve the response being measured.

One assay addresses Albumin (Bos taurus, UniProt P02769). Description: Counterscreen for inhibitors of T-cell receptor (TCR)-CD3 interaction: Fluorescence-based biochemical high throughput dose response assay to identify inhibitors of T-cell receptor (TCR)-CD3 interaction using a TAMRA-labeled BSA probe. The format is functional. For orientation: Counterscreens check selectivity or assay interference.

A further assay relates to Streptococcus. Description: GAS UMAA2166 growth inhibition – luminescence, BacTiterGlo, counter-screen for streptokinase expression inhibitor project, dose response (AID 1915).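 Further: potency for reduction of bacterial viability or growth.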 The format is functional, organism-based.
Assay [1] deals with NACHT, LRR and PYD domains-containing protein 3 (Homo sapiens, UniProt Q96P20). Description: NALP3 inhibitors in yeast, dose response, luminescent (AID 488799). The format is functional.
The test system of assay [2] is Streptococcus sp. 'group A'. Description: Streptococcus pyogenes SK(-)GAS viability under kanamycin – luminescence, BacTiterGlo, confirmation, counter-screen for streptokinase expression inhibitor project, dose response (AID 1900). The format is functional, organism-based.
The target in assay [3] is T1, Corticotropin-releasing factor receptor 2/Corticotropin-releasing factor-binding protein (Homo sapiens, UniProt P24387+Q13324).
T1 sequence (Q13324 whole entry): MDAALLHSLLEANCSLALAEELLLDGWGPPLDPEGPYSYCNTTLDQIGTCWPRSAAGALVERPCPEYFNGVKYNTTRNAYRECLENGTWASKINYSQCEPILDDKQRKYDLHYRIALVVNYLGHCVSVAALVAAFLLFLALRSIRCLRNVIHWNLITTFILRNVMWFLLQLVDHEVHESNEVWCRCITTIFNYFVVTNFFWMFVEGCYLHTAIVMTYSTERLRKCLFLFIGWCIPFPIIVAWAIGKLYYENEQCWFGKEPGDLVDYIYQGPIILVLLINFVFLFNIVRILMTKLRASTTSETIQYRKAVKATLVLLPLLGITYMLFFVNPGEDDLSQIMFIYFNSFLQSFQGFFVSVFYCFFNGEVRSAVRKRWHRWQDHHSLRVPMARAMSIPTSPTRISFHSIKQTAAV
T1 sequence (P24387 whole entry): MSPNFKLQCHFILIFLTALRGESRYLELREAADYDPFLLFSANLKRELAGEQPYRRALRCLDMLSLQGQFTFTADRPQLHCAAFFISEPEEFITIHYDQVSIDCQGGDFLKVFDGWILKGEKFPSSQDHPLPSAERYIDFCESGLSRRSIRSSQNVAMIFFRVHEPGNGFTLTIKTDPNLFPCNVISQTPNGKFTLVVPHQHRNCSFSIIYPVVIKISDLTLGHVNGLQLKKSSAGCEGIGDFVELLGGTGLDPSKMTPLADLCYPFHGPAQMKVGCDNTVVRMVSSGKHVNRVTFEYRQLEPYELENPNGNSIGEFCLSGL
Description: activators of CRF receptor 2 with binding protein – uHTS hits, confirmation (AID 602473). It is filed as functional. The settings on record: read-out: EC50_Mean.

The next assay has as its target T2, Streptokinase A (Streptococcus pyogenes serotype M1, UniProt P10520).
T2 sequence (P10520 whole entry): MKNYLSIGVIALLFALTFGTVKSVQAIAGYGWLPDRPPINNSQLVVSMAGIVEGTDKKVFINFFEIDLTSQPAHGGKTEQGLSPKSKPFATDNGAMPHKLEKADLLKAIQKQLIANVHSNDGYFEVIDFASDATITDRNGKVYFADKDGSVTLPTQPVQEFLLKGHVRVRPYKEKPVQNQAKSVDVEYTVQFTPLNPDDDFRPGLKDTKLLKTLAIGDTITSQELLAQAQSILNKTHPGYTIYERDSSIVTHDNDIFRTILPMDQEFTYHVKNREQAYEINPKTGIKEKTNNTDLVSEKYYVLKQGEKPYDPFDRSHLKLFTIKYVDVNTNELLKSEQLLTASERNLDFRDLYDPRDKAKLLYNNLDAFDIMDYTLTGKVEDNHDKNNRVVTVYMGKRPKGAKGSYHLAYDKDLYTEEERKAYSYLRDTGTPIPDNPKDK
Briefly: viability-normalized secreted streptokinase activity reduction – plasminogen activation absorbance, OD405, dose response (AID 1914).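 Further: secreted streptokinase activity via plasminogen activation per viability signal from cell pellet.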 The format is functional, Streptococcus pyogenes M1 GAS.

For the next assay, the target named is X-box-binding protein 1 (Homo sapiens, UniProt P17861). It is filed as functional, Cricetulus griseus.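 Further: confirmatory dose-response counter-screen serving a CHOP assay.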
For assay [4], the target named is DNA dC->dU-editing enzyme APOBEC-3A (Homo sapiens, UniProt P31941). Briefly: Dose Response confirmation of small molecule APOBEC3A DNA Deaminase Inhibitors via a fluorescence-based single-stranded DNA deaminase assay. [Related pubchem assays (depositor defined):AID493011, AID493024]. The format is functional.
The target in assay [5] is DNA dC->dU-editing enzyme APOBEC-3G (Homo sapiens, UniProt Q9HC16). It is filed as functional.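 Further: Dose-response counterscreen measuring inhibition of APOBEC3G DNA deaminase activity, run while confirming APOBEC3A inhibitors.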
The target of assay [6] is T3, Tyrosine-protein phosphatase non-receptor type 7 (Homo sapiens, UniProt P35236).
T3 sequence (P35236 whole entry): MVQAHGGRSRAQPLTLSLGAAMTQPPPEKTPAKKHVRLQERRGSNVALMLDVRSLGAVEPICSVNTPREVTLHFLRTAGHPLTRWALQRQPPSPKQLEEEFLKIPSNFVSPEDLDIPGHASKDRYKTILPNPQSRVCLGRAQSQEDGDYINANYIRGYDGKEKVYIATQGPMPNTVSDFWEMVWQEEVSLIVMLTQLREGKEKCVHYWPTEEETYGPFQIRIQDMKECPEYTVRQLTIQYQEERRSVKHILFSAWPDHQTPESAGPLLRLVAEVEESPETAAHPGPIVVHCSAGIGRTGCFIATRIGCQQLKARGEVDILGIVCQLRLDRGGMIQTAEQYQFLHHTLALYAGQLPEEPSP
Description: redox-active compounds inhibiting HePTP phosphatase – biochemical, fluorescence, mechanism study (AID 2068). It is filed as functional.

Assay [7] addresses T4, Dual specificity protein phosphatase 3 (Homo sapiens, UniProt P51452). Description: SAR VHR1 Fluorescent Assay for In Vitro dose response studies Set 2. [Related pubchem assays (depositor defined):AID1654, AID1661, AID1878]. The format is functional.
The target in assay [8] is T5, Dual specificity protein phosphatase 6 (Rattus norvegicus, UniProt Q64346).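 Further: confirmatory in vitro dose-response testing of MKP-3 inhibition; recombinant His-tagged MKP-3 made in E. coli BL21 with OMFP substrate.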
T5 sequence (Q64346 whole entry): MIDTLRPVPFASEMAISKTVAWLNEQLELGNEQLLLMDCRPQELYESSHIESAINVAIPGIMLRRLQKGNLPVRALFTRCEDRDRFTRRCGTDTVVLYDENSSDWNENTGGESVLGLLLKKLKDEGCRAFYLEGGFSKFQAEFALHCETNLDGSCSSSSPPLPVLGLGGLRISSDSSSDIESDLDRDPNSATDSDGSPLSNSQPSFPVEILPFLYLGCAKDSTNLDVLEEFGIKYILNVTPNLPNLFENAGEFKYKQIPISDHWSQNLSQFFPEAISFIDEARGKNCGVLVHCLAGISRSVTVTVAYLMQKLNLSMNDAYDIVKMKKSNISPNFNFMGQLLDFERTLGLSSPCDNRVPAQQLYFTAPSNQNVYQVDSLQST
It is filed as functional.

Assay [9] has as its target T4, Dual specificity protein phosphatase 3. Briefly: SAR VHR1 Fluorescent Assay for In Vitro dose response studies. [Related pubchem assays (depositor defined):AID1654, AID1661, AID1878, AID1992, AID2004, AID2070, AID2085]. It is filed as functional.
For assay [10] the target is unchanged. Description: SAR VHR1 absorbance Assay for In Vitro dose response studies. [Related pubchem assays (depositor defined):AID1654, AID1661, AID1878, AID1992, AID2004].
Another assay addresses T6, Caspase-7 (Homo sapiens, UniProt P55210).
T6 sequence (P55210 whole entry): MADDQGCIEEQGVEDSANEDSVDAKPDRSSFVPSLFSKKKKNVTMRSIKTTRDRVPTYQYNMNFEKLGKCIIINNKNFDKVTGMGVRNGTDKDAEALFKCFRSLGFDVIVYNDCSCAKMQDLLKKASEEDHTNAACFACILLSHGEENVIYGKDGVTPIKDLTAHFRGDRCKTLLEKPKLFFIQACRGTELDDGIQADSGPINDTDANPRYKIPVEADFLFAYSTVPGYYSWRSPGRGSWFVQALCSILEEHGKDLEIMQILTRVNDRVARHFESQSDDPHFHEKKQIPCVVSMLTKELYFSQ
Description: activation of caspase-7 zymogen – biochemical, absorbance, counter-screen for procaspase-3 activator project, dose response (AID 489013).

The next assay deals with T7, Caspase-3 (Homo sapiens, UniProt P42574).
T7 sequence (P42574 whole entry): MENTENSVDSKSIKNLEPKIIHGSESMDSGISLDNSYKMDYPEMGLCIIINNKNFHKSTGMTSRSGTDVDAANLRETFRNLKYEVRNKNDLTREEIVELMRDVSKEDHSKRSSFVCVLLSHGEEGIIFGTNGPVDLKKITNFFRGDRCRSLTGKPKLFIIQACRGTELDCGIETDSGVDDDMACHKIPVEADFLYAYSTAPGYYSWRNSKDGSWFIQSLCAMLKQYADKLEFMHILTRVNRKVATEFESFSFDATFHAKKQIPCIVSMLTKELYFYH
Description: activation of caspase-3 zymogen – biochemical, absorbance, dose response (AID 489014).

A further assay deals with Hexokinase (Trypanosoma brucei, UniProt Q38C41). Briefly: Confirmation assay for inhibitors of Trypanosoma brucei hexokinase 1-Analogue-first series. [Related pubchem assays (depositor defined):AID1430, AID1632, AID2516, AID2560, AID2579, AID2600, AID449725, AID492951]. The format is functional.
Hexokinase, sequence (Q38C41 whole entry): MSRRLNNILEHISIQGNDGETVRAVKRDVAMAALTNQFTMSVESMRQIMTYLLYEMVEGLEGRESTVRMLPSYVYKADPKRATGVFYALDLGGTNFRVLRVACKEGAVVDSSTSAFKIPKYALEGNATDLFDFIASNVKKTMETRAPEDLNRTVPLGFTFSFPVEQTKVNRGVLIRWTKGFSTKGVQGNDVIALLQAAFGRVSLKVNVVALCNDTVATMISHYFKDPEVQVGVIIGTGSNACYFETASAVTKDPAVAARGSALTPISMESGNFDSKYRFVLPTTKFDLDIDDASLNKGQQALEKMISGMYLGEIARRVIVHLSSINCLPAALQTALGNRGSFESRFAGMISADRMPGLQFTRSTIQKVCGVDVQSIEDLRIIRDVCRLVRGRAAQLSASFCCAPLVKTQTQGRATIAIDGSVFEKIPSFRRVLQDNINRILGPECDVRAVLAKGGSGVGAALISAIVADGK

T4 sequence (P51452 whole entry): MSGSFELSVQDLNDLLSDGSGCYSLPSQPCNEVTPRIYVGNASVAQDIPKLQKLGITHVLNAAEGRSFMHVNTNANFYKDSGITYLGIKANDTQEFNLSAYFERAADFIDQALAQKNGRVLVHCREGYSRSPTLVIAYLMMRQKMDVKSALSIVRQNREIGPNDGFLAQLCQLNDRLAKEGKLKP
NACHT, LRR and PYD domains-containing protein 3, sequence (Q96P20 whole entry, the tested form may be a part): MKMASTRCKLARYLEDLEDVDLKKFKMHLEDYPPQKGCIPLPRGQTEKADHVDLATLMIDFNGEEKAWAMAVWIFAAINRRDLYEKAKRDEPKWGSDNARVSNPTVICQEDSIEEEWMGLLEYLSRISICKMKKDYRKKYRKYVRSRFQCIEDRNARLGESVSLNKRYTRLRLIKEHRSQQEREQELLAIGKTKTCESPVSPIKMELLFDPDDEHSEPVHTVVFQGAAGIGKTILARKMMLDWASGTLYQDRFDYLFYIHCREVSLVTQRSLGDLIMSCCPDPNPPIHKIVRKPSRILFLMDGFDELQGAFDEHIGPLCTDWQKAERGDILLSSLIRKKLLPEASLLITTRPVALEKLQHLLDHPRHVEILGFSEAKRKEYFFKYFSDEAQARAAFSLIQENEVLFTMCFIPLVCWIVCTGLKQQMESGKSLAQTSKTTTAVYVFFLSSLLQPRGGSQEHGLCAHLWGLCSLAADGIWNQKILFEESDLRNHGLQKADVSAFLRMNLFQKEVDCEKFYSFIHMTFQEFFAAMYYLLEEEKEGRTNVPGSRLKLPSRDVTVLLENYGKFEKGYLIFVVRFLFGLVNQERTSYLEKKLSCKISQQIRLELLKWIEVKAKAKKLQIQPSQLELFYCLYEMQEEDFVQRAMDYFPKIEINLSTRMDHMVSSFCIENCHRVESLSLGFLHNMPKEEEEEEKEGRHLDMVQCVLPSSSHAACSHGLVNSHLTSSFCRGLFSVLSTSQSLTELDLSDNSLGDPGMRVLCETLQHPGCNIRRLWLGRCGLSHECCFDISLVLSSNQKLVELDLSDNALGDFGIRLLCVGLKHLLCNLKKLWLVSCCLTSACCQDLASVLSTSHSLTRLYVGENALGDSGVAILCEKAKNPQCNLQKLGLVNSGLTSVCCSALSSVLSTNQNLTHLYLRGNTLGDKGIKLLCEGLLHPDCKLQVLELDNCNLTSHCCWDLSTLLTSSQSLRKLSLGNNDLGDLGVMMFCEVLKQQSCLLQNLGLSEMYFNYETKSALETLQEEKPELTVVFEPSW
X-box-binding protein 1, sequence (P17861 whole entry): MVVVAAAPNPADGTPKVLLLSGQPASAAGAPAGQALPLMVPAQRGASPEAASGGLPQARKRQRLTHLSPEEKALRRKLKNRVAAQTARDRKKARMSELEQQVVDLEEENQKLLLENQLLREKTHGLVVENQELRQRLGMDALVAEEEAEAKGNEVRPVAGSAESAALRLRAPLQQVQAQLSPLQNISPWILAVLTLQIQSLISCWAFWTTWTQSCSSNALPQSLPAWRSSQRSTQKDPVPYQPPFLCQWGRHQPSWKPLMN
Albumin, sequence (P02769 whole entry): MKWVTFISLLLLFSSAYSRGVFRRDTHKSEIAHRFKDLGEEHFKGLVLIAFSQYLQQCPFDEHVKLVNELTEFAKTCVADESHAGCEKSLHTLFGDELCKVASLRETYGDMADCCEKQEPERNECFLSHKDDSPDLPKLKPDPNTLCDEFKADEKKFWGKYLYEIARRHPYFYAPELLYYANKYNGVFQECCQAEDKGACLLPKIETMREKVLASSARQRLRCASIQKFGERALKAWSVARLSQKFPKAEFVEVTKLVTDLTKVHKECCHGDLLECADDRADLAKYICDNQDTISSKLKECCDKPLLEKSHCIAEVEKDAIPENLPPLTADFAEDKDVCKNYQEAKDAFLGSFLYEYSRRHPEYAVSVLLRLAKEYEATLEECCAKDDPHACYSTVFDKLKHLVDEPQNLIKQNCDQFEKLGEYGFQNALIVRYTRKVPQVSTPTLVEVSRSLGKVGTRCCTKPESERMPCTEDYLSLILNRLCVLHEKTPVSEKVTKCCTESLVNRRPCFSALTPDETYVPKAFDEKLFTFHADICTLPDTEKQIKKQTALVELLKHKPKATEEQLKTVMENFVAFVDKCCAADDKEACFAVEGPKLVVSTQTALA
DNA dC->dU-editing enzyme APOBEC-3A, sequence (P31941 whole entry): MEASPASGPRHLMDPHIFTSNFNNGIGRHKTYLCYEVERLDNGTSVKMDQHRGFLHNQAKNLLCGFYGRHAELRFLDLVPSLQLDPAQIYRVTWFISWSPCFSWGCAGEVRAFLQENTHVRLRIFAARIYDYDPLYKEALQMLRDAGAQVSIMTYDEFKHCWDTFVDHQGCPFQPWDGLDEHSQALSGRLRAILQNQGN
DNA dC->dU-editing enzyme APOBEC-3G, sequence (Q9HC16 whole entry): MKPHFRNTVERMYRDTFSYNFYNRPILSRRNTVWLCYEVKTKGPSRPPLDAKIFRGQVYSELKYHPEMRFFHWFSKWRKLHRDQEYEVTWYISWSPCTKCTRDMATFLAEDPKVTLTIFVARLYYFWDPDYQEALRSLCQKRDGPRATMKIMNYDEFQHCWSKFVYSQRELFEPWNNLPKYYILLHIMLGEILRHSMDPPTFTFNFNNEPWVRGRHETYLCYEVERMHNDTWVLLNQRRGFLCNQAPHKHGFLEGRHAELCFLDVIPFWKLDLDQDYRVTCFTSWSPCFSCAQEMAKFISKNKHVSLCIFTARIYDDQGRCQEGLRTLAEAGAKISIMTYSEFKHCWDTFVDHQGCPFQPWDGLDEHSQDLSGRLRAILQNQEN

Take `Cn1c(=O)c(C(=O)NNC(=O)c2ccccc2F)c(O)c2ccccc21`: the results for the IC50 (at Albumin; in assay [1]) were > 94.1 µM (inactive) and 1.94 µM (active), respectively. For the same compound, the EC50 in the assay with Streptococcus is 18.6 µM (active); in [2], 4.65 µM (active); in [3], 5.36 µM (active); on Streptokinase A it was > 150 µM (not active).

As for `CCCOc1ccc(N2C(=O)CC(SC(=NC)Nc3ccc(F)cc3)C2=O)cc1` (configuration not stated), on X-box-binding protein 1, the “Absolute IC50 (XBP1)” value is 10 µM.

With `COc1ccccc1OC(C)C(=O)N1CCC(Cc2ccccc2)CC1` (configuration not stated), the IC50 was 7.11 µM (active) in assay [4] and 6.99 µM (active) in assay [5].

Turning to `NS(=O)(=O)c1cccc(C(=O)NC2CCSc3ccccc32)c1` (configuration not stated), the IC50 in [6], in assay [7], in assay [8], in assay [9] and in [10] was > 100 µM (inactive) throughout.

Regarding `CC(NC(=O)c1cc2cc([N+](=O)[O-])ccc2oc1=O)C1CCCO1` (configuration not stated), the EC50 at Caspase-7 was 20.2 µM (inactive); at Caspase-3, 13.4 µM (inactive).

As to `CC(C)(C)c1ccc(C(=O)Nc2cc(Br)ccc2C(=O)O)cc1`, on Hexokinase, the IC50 was 2.39 µM (active).

For the origin of these results see ChEMBL document CHEMBL1201862, “PubChem BioAssay data set” (2004).
